# Reference: patent US7741327B2 (Hoffmann-La Roche Inc., priority 2008, dated 2010)
# Target: T1, Recombinant human liver GK1 (GST-GK) (Homo sapiens, UniProt P35557)
# T1 construct: made in house; host or cells: E. coli
# T1 sequence (P35557 1-466 isoform P35557-2): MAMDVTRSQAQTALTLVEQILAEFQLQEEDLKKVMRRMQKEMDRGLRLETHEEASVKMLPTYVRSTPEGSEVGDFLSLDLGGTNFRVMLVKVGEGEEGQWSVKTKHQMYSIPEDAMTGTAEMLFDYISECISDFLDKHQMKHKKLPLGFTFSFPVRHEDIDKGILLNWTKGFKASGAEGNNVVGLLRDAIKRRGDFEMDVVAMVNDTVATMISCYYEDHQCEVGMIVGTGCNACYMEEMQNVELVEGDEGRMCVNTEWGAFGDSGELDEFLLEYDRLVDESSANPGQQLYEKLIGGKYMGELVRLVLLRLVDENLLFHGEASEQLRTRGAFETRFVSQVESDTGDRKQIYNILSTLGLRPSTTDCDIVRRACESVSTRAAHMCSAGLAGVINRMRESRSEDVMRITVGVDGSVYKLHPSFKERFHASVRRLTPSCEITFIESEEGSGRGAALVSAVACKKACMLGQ
# Assay: In vitro glucokinase activity (G6PDH-coupled NADH assay)
# Type: biochemical
# Conditions: 30° C., 5 mM D-glucose, 10% DMSO
# Method in brief: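 Activation measured as the rate of OD340 rise from G6PDH-coupled NADH production, relative to 10% DMSO control, reported as SC1.5 (concentration for 50% activity increase). Conditions: 30° C, pH 7.1 Hepes, 5 mM glucose, 1 mM ATP, purified recombinant GST-human GK1, compound preincubated 10 min before enzyme addition.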
smiles,measurement,value
"COc1cccc(OC2=CC(=O)N([C@@H](CC(C)C)C(=O)Nc3ccn(CC(C)(C)O)n3)C2)c1 [Example 165, (S)-2-[4-(3-Methoxy-phenoxy)-2-oxo-2,5-dihydro-pyrrol-1-yl]-4-methyl-pentanoic acid [1-(2-hydroxy-2-methyl-propyl)-1H-pyrazol-3-yl]-amide]",SC1.5 (concentration of activator that produced a 50% increase in the activity of GK),0.243 µM
"CC(C)C[C@@H](C(=O)Nc1ccn(C[C@@H](O)CO)n1)N1CC(Oc2ccccc2F)=CC1=O [Example 166, (S)-2-[4-(2-Fluoro-phenoxy)-2-oxo-2,5-dihydro-pyrrol-1-yl]-4-methyl-pentanoic acid [1-((R)-2,3-dihydroxy-propyl)-1H-pyrazol-3-yl]-amide]",SC1.5 (concentration of activator that produced a 50% increase in the activity of GK),0.239 µM
"CC(C)C[C@@H](C(=O)Nc1ccn(CC(C)(C)O)n1)N1CC(Oc2ccccc2F)=CC1=O [Example 167, (S)-2-[4-(2-Fluoro-phenoxy)-2-oxo-2,5-dihydro-pyrrol-1-yl]-4-methyl-pentanoic acid [1-(2-hydroxy-2-methyl-propyl)-1H-pyrazol-3-yl]-amide]",SC1.5 (concentration of activator that produced a 50% increase in the activity of GK),0.206 µM
"CC(C)C[C@@H](C(=O)Nc1ccn(C[C@@H](O)CO)n1)N1CC(Oc2ccc3c(c2)OCCO3)=CC1=O [Example 168, (S)-2-[4-(2,3-dihydro-benzo[1,4]dioxin-6-yloxy)-2-oxo-2,5-dihydro-pyrrol-1-yl]-4-methyl-pentanoic acid [1-((R)-2,3-dihydroxy-propyl)-1H-pyrazol-3-yl]-amide]",SC1.5 (concentration of activator that produced a 50% increase in the activity of GK),0.437 µM
"O=C(Nc1ccn(C[C@@H](O)CO)n1)C(CC1CCC1)N1CC(Oc2ccccc2Cl)=CC1=O (stereo partly drawn) [Example 169, 2-[4-(2-chloro-phenoxy)-2-oxo-2,5-dihydro-pyrrol-1-yl]-3-cyclobutyl-N-[1-((R)-2,3-dihydroxy-propyl)-1H-pyrazol-3-yl]-propionamide]",SC1.5 (concentration of activator that produced a 50% increase in the activity of GK),0.086 µM
"COc1cccc(OC2=CC(=O)N(C(CC(C)(C)F)C(=O)Nc3ccn(C[C@@H](O)CO)n3)C2)c1Cl (stereo partly drawn) [Example 170, 2-[4-(2-Chloro-3-methoxyphenoxy)-2-oxo-2,5-dihydro-pyrrol-1-yl]-4-fluoro-4-methyl-pentanoic acid-[1-((R)-2,3-dihydroxy-propyl)-1H-pyrazol-3-yl]-amide]",SC1.5 (concentration of activator that produced a 50% increase in the activity of GK),3.575 µM
"COc1cccc(OC2=CC(=O)N(C(CC(C)(C)F)C(=O)Nc3ccn(CC(C)(C)O)n3)C2)c1Cl (stereo not shown) [Example 171, 2-[4-(2-Chloro-3-methoxy-phenoxy)-2-oxo-2,5-dihydro-pyrrol-1-yl]-4-fluoro-4-methyl-pentanoic acid [1-(2-hydroxy-2-methyl-propyl)-1H-pyrazol-3-yl]-amide]",SC1.5 (concentration of activator that produced a 50% increase in the activity of GK),3.485 µM
"CC(C)C[C@@H](C(=O)Nc1ccn(C[C@@H]2CNC(=O)O2)n1)N1CC(Oc2ccccc2Cl)=CC1=O [Example 172, (S)-2-[4-(2-chloro-phenoxy)-2-oxo-2,5-dihydro-pyrrol-1-yl]-4-methyl-pentanoic acid [1-((S)-2-oxo-oxazolidin-5-ylmethyl)-1H-pyrazol-3-yl]-amide]",SC1.5 (concentration of activator that produced a 50% increase in the activity of GK),0.628 µM
"CC(C)C[C@@H](C(=O)Nc1ccn(C[C@H]2COC(C)(C)O2)n1)N1CC(Oc2ccccc2Cl)=CC1=O [Example 174, (S)-2-[4-(2-Chloro-phenoxy)-2-oxo-2,5-dihydro-pyrrol-1-yl]-4-methyl-pentanoic acid [1-((S)-2,2-dimethyl-[1,3]dioxolan-4-yl-methyl)-1H-pyrazol-3-yl]-amide]",SC1.5 (concentration of activator that produced a 50% increase in the activity of GK),0.133 µM
"CC(C)C[C@@H](C(=O)Nc1ccn(C[C@H](O)CO)n1)N1CC(Oc2ccccc2Cl)=CC1=O [Example 175, (S)-2-[4-(2-Chloro-phenoxy)-2-oxo-2,5-dihydro-pyrrol-1-yl]-4-methyl-pentanoic acid [1-((S)-2,3-dihyrxy-propyl)-1H-pyrazol-3-yl]-amide]",SC1.5 (concentration of activator that produced a 50% increase in the activity of GK),0.138 µM
"O=C(Nc1ccn(C[C@@H](O)CO)n1)[C@H](CC1CCC1)N1CC(Oc2ccccc2Cl)=CC1=O [Example 176, (S)-2-[4-(2-chloro-phenoxy)-2-oxo-2,5-dihydro-pyrrol-1-yl]-3-cyclobutyl-N-[1-((R)-2,3-dihydroxy-propyl)-1H-pyrazol-3-yl]-propionamide]",SC1.5 (concentration of activator that produced a 50% increase in the activity of GK),0.05 µM
"O=C(Nc1ccn(C[C@@H](O)CO)n1)[C@@H](CC1CCC1)N1CC(Oc2ccccc2Cl)=CC1=O [Example 177, (R)-2-[4-(2-chloro-phenoxy)-2-oxo-2,5-dihydro-pyrrol-1-yl]-3-cyclobutyl-N-[1-((R)-2,3-dihydroxy-propyl)-1H-pyrazol-3-yl]-propionamide]",SC1.5 (concentration of activator that produced a 50% increase in the activity of GK),4.725 µM
"COc1ccccc1OC1=CC(=O)N([C@@H](CC2CCCO2)C(=O)Nc2ccn(CC(C)(C)O)n2)C1 (stereo partly drawn) [Example 178, (S)-N-[1-(2-hydroxy-2-methyl-propyl)-1H-pyrazol-3-yl]-2-[4-(2-methoxy-phenoxy)-2-oxo-2,5-dihydro-pyrrol-1-yl]-3-(tetrahydro-furan-2-yl)-propionamide]",SC1.5 (concentration of activator that produced a 50% increase in the activity of GK),2.231 µM
"COc1ccccc1OC1=CC(=O)N([C@@H](CC2CCCO2)C(=O)Nc2ccn(CC(C)(C)O)n2)C1 (stereo partly drawn) [Example 179, (S)-N-[1-(2-hydroxy-2-methyl-propyl)-1H-pyrazol-3-yl]-2-[4-(2-methoxy-phenoxy)-2-oxo-2,5-dihydro-pyrrol-1-yl]-3-(tetrahydro-furan-2-yl)-propionamide]",SC1.5 (concentration of activator that produced a 50% increase in the activity of GK),0.295 µM
"CC(C)C[C@@H](C(=O)Nc1ccn(C[C@@H](N)CO)n1)N1CC(Oc2ccccc2Cl)=CC1=O [Example 180, (S)-2-[4-(2-chloro-phenoxy)-2-oxo-2,5-dihydro-pyrrol-1-yl]-4-methyl-pentanoic acid [1-((R)-2-amino-3-hydroxy-propyl)-1H-pyrazol-3-yl]-amide]",SC1.5 (concentration of activator that produced a 50% increase in the activity of GK),6.393 µM
"O=C(Nc1ccn(C[C@@H](O)CO)n1)[C@H](Cc1ccccc1)N1CC(Oc2ccccc2Cl)=CC1=O [Example 181, (S)-2-[4-(2-chloro-phenoxy)-2-oxo-2,5-dihydro-pyrrol-1-yl]-N-[1-((R)-2,3-dihydroxy-propyl)-1H-pyrazol-3-yl]-3-phenyl-propionamide]",SC1.5 (concentration of activator that produced a 50% increase in the activity of GK),1.064 µM
"CC1(C)OC[C@@H](Cn2ccc(NC(=O)[C@H](Cc3ccccc3F)N3CC(Oc4ccccc4Cl)=CC3=O)n2)O1 [Example 182, (S)-2-[4-(2-chloro-phenoxy)-2-oxo-2,5-dihydro-pyrrol-1-yl]-N-[1-((R)-2,2-dimethyl-[1,3]dioxolan-4-yl-methyl)-1H-pyrazol-3-yl]-3-(2-fluoro-phenyl)-propionamide]",SC1.5 (concentration of activator that produced a 50% increase in the activity of GK),0.496 µM
"O=C(Nc1ccn(C[C@@H](O)CO)n1)[C@H](Cc1ccccc1F)N1CC(Oc2ccccc2Cl)=CC1=O [Example 183, (S)-2-[4-(2-chloro-phenoxy)-2-oxo-2,5-dihydro-pyrrol-1-yl]-N-[1-((R)-2,3-dihydroxy-propyl)-1H-pyrazol-3-yl]-3-(2-fluorophenyl)-propionamide]",SC1.5 (concentration of activator that produced a 50% increase in the activity of GK),0.325 µM
"CC1(C)OC[C@@H](Cn2ccc(NC(=O)[C@H](Cc3c(F)cccc3F)N3CC(Oc4ccccc4Cl)=CC3=O)n2)O1 [Example 184, (S)-2-[4-(2-chloro-phenoxy)-2-oxo-2,5-dihydro-pyrrol-1-yl]-N-[1-((R)-2,2-dimethyl-[1,3]dioxolan-4-yl-methyl)-1H-pyrazol-3-yl]-3-(2,6-difluoro-phenyl)-propionamide]",SC1.5 (concentration of activator that produced a 50% increase in the activity of GK),0.617 µM
"O=C(Nc1ccn(C[C@@H](O)CO)n1)[C@H](Cc1c(F)cccc1F)N1CC(Oc2ccccc2Cl)=CC1=O [Example 185, (S)-2-[4-(2-chloro-phenoxy)-2-oxo-2,5-dihydro-pyrrol-1-yl]-N-[1-((R)-2,3-dihydroxy-propyl)-1H-pyrazol-3-yl]-3-(2,6-difluorophenyl)-propionamide]",SC1.5 (concentration of activator that produced a 50% increase in the activity of GK),0.371 µM
"CC1(C)OC[C@@H](Cn2ccc(NC(=O)[C@H](Cc3ccc(F)cc3)N3CC(Oc4ccccc4Cl)=CC3=O)n2)O1 [Example 186, (S)-2-[4-(2-chloro-phenoxy)-2-oxo-2,5-dihydro-pyrrol-1-yl]-N-[1-((R)-2,2-dimethyl-[1,3]dioxolan-4-yl-methyl)-1H-pyrazol-3-yl]-3-(4-fluoro-phenyl)-propionamide]",SC1.5 (concentration of activator that produced a 50% increase in the activity of GK),1.538 µM
"O=C(Nc1ccn(C[C@@H](O)CO)n1)[C@H](Cc1ccc(F)cc1)N1CC(Oc2ccccc2Cl)=CC1=O [Example 187, (S)-2-[4-(2-chloro-phenoxy)-2-oxo-2,5-dihydro-pyrrol-1-yl]-N-[1-((R)-2,3-dihydroxy-propyl)-1H-pyrazol-3-yl]-3-(4-fluorophenyl)-propionamide]",SC1.5 (concentration of activator that produced a 50% increase in the activity of GK),0.771 µM
